Reference: US11285156B2, “Substituted piperazines as KRAS G12C inhibitors” (Amgen Inc., priority 2018, dated 2022)
Read-outs that look alike come from different tables or passages of the source.

How the values were obtained:
[1] = target: GDP-bound KRAS protein (aa 1-169), containing both G12C and C118A amino acid substitutions (Homo sapiens (Human), UniProt P01116, C118A/G12C); assay: Coupled nucleotide exchange assay (SOS-mediated nucleotide exchange, AlphaScreen); type: biochemical; settings: 5 min compound pre-incubation; for IC50: read-out: Coupled exchange IC50 (5 min; μM)
[2] = tested on: Phosphorylation of ERK1/2 in MIA PaCa-2 cells; assay: Phospho-ERK1/2 MSD assay in MIA PaCa-2 cells; type: cell-based; settings: read-out: p-ERK IC50 (2 h, MiaPaCa-2; μM), 2 h compound treatment, MIA PaCa-2 cells, EGF stimulated
Outline: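 Phospho-ERK1/2 measured by MSD electrochemiluminescence kit in RIPA lysates of MIA PaCa-2 cells. Cells were treated with compound titrations for 2 or 4 h at 37 °C, 5% CO2, followed by a 10 min pulse of 10 ng/mL EGF.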

[3] = tested on: Phosphorylation of ERK1/2 in A549 cells; assay: Phospho-ERK1/2 MSD assay in A549 cells; type: cell-based; settings: read-out: p-ERK IC50 (2 h, A549; μM), 2 h compound treatment, A549 cells, EGF stimulated
Outline: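 Dose-response treatment lasted 2 or 4 h in RPMI 1640/10% FBS at 37 °C. EGF-stimulated (10 ng/mL, 10 min) ERK1/2 phosphorylation was then quantified in cell lysates with a Meso Scale Discovery phospho-ERK1/2 assay.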

Sequence of GDP-bound KRAS protein (aa 1-169), containing both G12C and C118A amino acid substitutions (P01116 other isoform, or with tags, fused parts or gaps G12C/C118A): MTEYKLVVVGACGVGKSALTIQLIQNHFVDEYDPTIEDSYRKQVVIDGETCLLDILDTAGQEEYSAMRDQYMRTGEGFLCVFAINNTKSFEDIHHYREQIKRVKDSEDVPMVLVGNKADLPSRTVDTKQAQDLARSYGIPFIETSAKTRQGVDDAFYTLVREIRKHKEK

SMILES	Coupled exchange IC50 (5 min; μM) [1]	IC50 ([2]; Homo sapiens, MIA PaCa-2, 2 h)	IC50 ([3]; Homo sapiens, A549, 2 h)	IC50 [2]	IC50 [3]	IC50 [1]
C=CC(=O)N1C[C@H](C)N(c2nc(=O)n(-c3c(C(C)C)cnnc3C(C)C)c3nc(-c4ccccc4F)c(Cl)cc23)C[C@H]1C (single isomer, unassigned) [Example 205-1]	0.098 µM	0.07 µM	> 7.5 µM			
C=CC(=O)N1C[C@H](C)N(c2nc(=O)n(-c3c(C(C)C)cnnc3C(C)C)c3nc(-c4ccccc4F)c(Cl)cc23)C[C@H]1C (single isomer, unassigned) [Example 205-2]	0.078 µM			0.091 µM	> 7.5 µM	
C=CC(=O)N1C[C@H](C)N(c2nc(=O)n(-c3c(C(C)C)cccc3S(C)(=O)=O)c3nc(-c4ccccc4F)c(Cl)cc23)C[C@H]1C (single isomer, unassigned) [Example 208-2]				0.106 µM	> 7.5 µM	0.117 µM
C=CC(=O)N1C[C@H](C)N(c2nc(=O)n(-c3c(C(C)C)cccc3[S+](C)[O-])c3nc(-c4ccccc4F)c(Cl)cc23)C[C@H]1C (single isomer, unassigned) [Example 209-1]	0.088 µM	0.116 µM	> 7.5 µM			
C=CC(=O)N1C[C@H](C)N(c2nc(=O)n(-c3c(C)cc([S+](C)[O-])cc3C(C)C)c3nc(-c4ccccc4C)c(Cl)cc23)C[C@H]1C (single isomer, unassigned) [Example 213-2]	0.072 µM	0.069 µM	> 7.5 µM			
C=CC(=O)N1C[C@H](C)N(c2nc(=O)n(-c3c(C)cc([S+](C)[O-])cc3C(C)C)c3nc(-c4ccccc4C)c(Cl)cc23)C[C@H]1C (single isomer, unassigned) [Example 213-3]	0.066 µM			0.074 µM	> 7.5 µM	
C=CC(=O)N1C[C@H](C)N(c2nc(=O)n(-c3c(C)cc(S(C)(=O)=O)cc3C(C)C)c3nc(-c4ccccc4F)c(Cl)cc23)C[C@H]1C (single isomer, unassigned) [Example 215-2]	0.055 µM	0.086 µM	> 7.5 µM			
C=CC(=O)N1C[C@H](C)N(c2nc(=O)n(-c3c(C)ccnc3C(C)C)c3nc(C4CC4(C)C)c(Cl)cc23)C[C@H]1C (stereo partly drawn) [93-2]				0.558 µM	> 7.5 µM	0.305 µM
C=CC(=O)N1C[C@H](C)N(c2nc(=O)n(-c3c(N(C)C)ccnc3C(C)C)c3nc(-c4ccccc4F)c(Cl)cc23)C[C@H]1C [Example 55-51, 6-Chloro-1-[4-(dimethylamino)-2-isopropyl-3-pyridyl]-4-[(2S,5R)-2,5-dimethyl-4-prop-2-enoyl-piperazin-1-yl]-7-(2-fluorophenyl)pyrido[2,3-d]pyrimidin-2-one]			> 7.5 µM	0.079 µM		0.19 µM
C=CC(=O)N1C[C@H](C)N(c2nc(=O)n(-c3c(Cl)ccnc3C(C)C)c3nc(OC)c(-c4ccccc4F)cc23)C[C@H]1C [Example 55-52, 1-(4-Chloro-2-isopropyl-3-pyridyl)-4-[(2S,5R)-2,5-dimethyl-4-prop-2-enoyl-piperazin-1-yl]-6-(2-fluorophenyl)-7-methoxy-pyrido[2,3-d]pyrimidin-2-one]		10 µM	> 7.5 µM			10.2 µM
C=CC(=O)N1C[C@H](C)N(c2nc(=O)n(C)c3nc(-c4ccccc4F)c(Cl)cc23)C[C@H]1C [Example 55-59, 6-Chloro-4-[(2S,5R)-2,5-dimethyl-4-prop-2-enoyl-piperazin-1-yl]-7-(2-fluorophenyl)-1-methyl-pyrido[2,3-d]pyrimidin-2-one]		10 µM	> 7.5 µM			174 µM
C=CC(=O)N1C[C@H](C)N(c2nc(=O)n(C(C)C)c3nc(-c4ccccc4F)c(Cl)cc23)C[C@H]1C [Example 55-60, 6-Chloro-4-[(2S,5R)-2,5-dimethyl-4-prop-2-enoyl-piperazin-1-yl]-7-(2-fluorophenyl)-1-isopropyl-pyrido[2,3-d]pyrimidin-2-one]		7.77 µM	> 7.5 µM			7.85 µM
C=CC(=O)N1C[C@H](C)N(c2nc(=O)n(-c3c(CN4CCCC4)cccc3C(C)C)c3nc(-c4ccccc4F)c(Cl)cc23)C[C@H]1C [Example 80-10, 6-Chloro-4-[(2S,5R)-2,5-dimethyl-4-prop-2-enoyl-piperazin-1-yl]-7-(2-fluorophenyl)-1-[2-isopropyl-6-(pyrrolidin-1-ylmethyl)phenyl]pyrido[2,3-d]pyrimidin-2-one]		0.063 µM	> 7.5 µM			0.077 µM
C=CC(=O)N1C[C@H](C)N(c2nc(=O)n(-c3c(CN4CC(F)(F)C4)cccc3C(C)C)c3nc(-c4ccccc4F)c(Cl)cc23)C[C@H]1C [Example 80-11, 6-chloro-1-[2-[(3,3-difluoroazetidin-1-yl)methyl]-6-isopropyl-phenyl]-4-[(2S,5R)-2,5-dimethyl-4-prop-2-enoyl-piperazin-1-yl]-7-(2-fluorophenyl)pyrido[2,3-d]pyrimidin-2-one]		0.222 µM	> 7.5 µM			0.078 µM
C=CC(=O)N1C[C@H](C)N(c2nc(=O)n(-c3c(CN4CCC4)cccc3C(C)C)c3nc(-c4ccccc4F)c(Cl)cc23)C[C@H]1C [Example 80-12, 1-[2-(azetidin-1-ylmethyl)-6-isopropyl-phenyl]-6-chloro-4-[(2S,5R)-2,5-dimethyl-4-prop-2-enoyl-piperazin-1-yl]-7-(2-fluorophenyl)pyrido[2,3-d]pyrimidin-2-one]		0.074 µM	> 7.5 µM			0.064 µM
C=CC(=O)N1CCN(c2nc(=O)n(-c3c(CN(C)C)cccc3C(C)C)c3nc(-c4ccccc4F)c(Cl)cc23)[C@@H](C)C1 [Example 80-13, 6-Chloro-1-[2-[(dimethylamino)methyl]-6-isopropyl-phenyl]-7-(2-fluorophenyl)-4-[(2S)-2-methyl-4-prop-2-enoyl-piperazin-1-yl]pyrido[2,3-d]pyrimidin-2-one]		0.053 µM	> 7.5 µM			0.043 µM
C=CC(=O)N1C[C@H](C)N(c2nc(=O)n(-c3c(C)cc(CN(C)C)cc3C(C)C)c3nc(-c4ccccc4F)c(F)cc23)C[C@H]1C [Example 80-20, 1-[4-[(Dimethylamino)methyl]-2-isopropyl-6-methyl-phenyl]-4-[(2S,5R)-2,5-dimethyl-4-prop-2-enoyl-piperazin-1-yl]-6-fluoro-7-(2-fluorophenyl)pyrido[2,3-d]pyrimidin-2-one]			> 7.5 µM	0.735 µM		0.763 µM
C=CC(=O)N1C[C@H](C)N(c2nc(=O)n(-c3c(C)cc(CN(C)C)cc3C(C)C)c3nc(-c4c(O)cccc4F)c(F)cc23)C[C@H]1C [Example 80-21, 1-[4-[(Dimethylamino)methyl]-2-isopropyl-6-methyl-phenyl]-4-[(2S,5R)-2,5-dimethyl-4-prop-2-enoyl-piperazin-1-yl]-6-fluoro-7-(2-fluoro-6-hydroxy-phenyl)pyrido[2,3-d]pyrimidin-2-one]		0.138 µM	> 7.5 µM			0.25 µM
C=CC(=O)N1C[C@H](C)N(c2nc(=O)n(-c3c(C(C)C)cnn3C(C)C)c3nc(-c4ccccc4F)c(Cl)cc23)C[C@H]1C [Example 100-1, 6-Chloro-1-(2,4-diisopropylpyrazol-3-yl)-4-[(2S,5R)-2,5-dimethyl-4-prop-2-enoyl-piperazin-1-yl]-7-(2-fluorophenyl)pyrido[2,3-d]pyrimidin-2-one]		0.123 µM	> 7.5 µM			0.084 µM
C=CC(=O)N1C[C@H](C)N(c2nc(=O)n(-c3c(C(C)C)ncnc3C(C)C)c3nc(-c4ccc(C#N)cc4F)c(Cl)cc23)C[C@H]1C [Example 100-2, 4-[6-Chloro-1-(4,6-diisopropylpyrimidin-5-yl)-4-[(2S,5R)-2,5-dimethyl-4-prop-2-enoyl-piperazin-1-yl]-2-oxo-pyrido[2,3-d]pyrimidin-7-yl]-3-fluoro-benzonitrile]		0.298 µM	> 7.5 µM			0.324 µM
C=CC(=O)N1C[C@H](C)N(c2nc(=O)n(-c3c(C(C)C)ncnc3C(C)C)c3nc(-c4ccccc4C(C)C)c(Cl)cc23)C[C@H]1C [Example 100-4, 6-Chloro-1-(4,6-diisopropylpyrimidin-5-yl)-4-[(2S,5R)-2,5-dimethyl-4-prop-2-enoyl-piperazin-1-yl]-7-(2-isopropylphenyl) pyrido[2,3-d]pyrimidin-2-one]		0.106 µM	> 7.5 µM			0.006 µM
C=CC(=O)N1C[C@H](C)N(c2nc(=O)n(-c3c(C(C)C)cncc3C(C)C)c3nc(-c4c(O)cccc4F)c(F)cc23)C[C@H]1C [Example 101-1, 1-(3,5-Diisopropyl-4-pyridyl)-4-[(2S,5R)-2,5-dimethyl-4-prop-2-enoyl-piperazin-1-y]-6-fluoro-7-(2-fluoro-6-hydroxy-phenyl)pyrido[2,3-d]pyrimidin-2-one]				0.116 µM	> 7.5 µM	0.134 µM
C=CC(=O)N1C[C@H](C)N(c2nc(=O)n(-c3c(C(C)C)ncnc3C(C)C)c3nc(-c4ccccc4F)c(F)cc23)C[C@H]1C [Example 101-2, 1-(4,6-Diisopropylpyrimidin-5-yl)-4-[(2S,5R)-2,5-dimethyl-4-prop-2-enoyl-piperazin-1-yl]-6-fluoro-7-(2-fluorophenyl)pyrido [2,3-d]pyrimidin-2-one]		0.116 µM	> 7.5 µM			0.16 µM
